# Measurements reported in article PMC4489196, “Visualization of regional tau deposits using ^3H-THK5117 in Alzheimer brain tissue” (Acta Neuropathologica Communications, 2015).
# “And” between values parts separate entries of the source, which are not always exact repeats. Equal values may be shown once. Read-outs that look alike come from different tables or passages of the source.
# Experiments:
# [1] = target: ^3H-THK5117 binding sites in AD temporal cortex homogenates (tau) (Homo sapiens, UniProt P10636); test: Competition binding against ^3H-THK5117 (3 nM) in temporal cortex homogenates; conditions: for Ki: AD temporal cortices
# Sequence of ^3H-THK5117 binding sites in AD temporal cortex homogenates (tau) (P10636 623-708 limits assumed): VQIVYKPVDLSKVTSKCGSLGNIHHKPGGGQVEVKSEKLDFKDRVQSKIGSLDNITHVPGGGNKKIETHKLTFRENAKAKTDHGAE
# Protocol: (§1) Human brain tissues from eight Alzheimer patients and eight controls were obtained from the Netherlands Brain Bank (demographic details in Table 1), and homogenized in PBS containing 0.1 % BSA and protease/phosphatase inhibitor.
# (§2) The specificity and selectivity of ^3H-THK5117 binding was determined by incubating homogenates (0.1 mg tissue) from Alzheimer’s patients’ temporal cortex and hippocampus with ^3H-THK5117 (3 nM), in the presence of THK5117 (10^−5 -10^−13 M), FDDNP (10^−6 -10^−14 M) or BTA-1 (10^−5 -10^−13 M). The results were analyzed with GraphPad Prism software, and the resulting inhibitory constants (Ki) were determined.
# [2] = tested on: ^3H-PIB binding sites (amyloid); test: Competition between ^3H-PIB and unlabeled THK5117; design: species or system Human
# neurofibrillary tangles = neurofibrillary tangles (Homo sapiens, UniProt P10636); test: THK5117 autofluorescence staining with adjacent AT8 immunostaining; assay type: binding; conditions: paraffin hippocampus section of another AD case; confirmed with AT8 on adjacent section
# Sequence of neurofibrillary tangles (P10636 623-758 limits assumed): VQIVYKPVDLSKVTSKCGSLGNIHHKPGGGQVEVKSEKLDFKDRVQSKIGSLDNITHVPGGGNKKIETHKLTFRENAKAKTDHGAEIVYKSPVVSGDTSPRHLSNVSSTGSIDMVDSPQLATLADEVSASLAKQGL
# Source text: A paraffin section from hippocampus of a patient with confirmed AD (at death, Braak VI, from the Netherlands brain bank) were quenched and stained with THK5117 following the procedure used by Okamura and colleagues for autofluorescence studies. An adjacent section was labeled with AT8 anti-tau and assessed using the EnVision + System HRP (DAB) (Dako Denmark) detection method.
# [3] = tested on: ^3H-THK5117 binding sites in hippocampus homogenates of one AD case (tau); test: Competition binding THK5117 against ^3H-THK5117 (3 nM) in hippocampus homogenates; design: species or system Human
# Protocol: as §1, §2
# A. Saturation binding curve and B. Scatchard plot of ^3H-THK5117 (0.04-270nM) for hippocampus homogenates of one AD patient. The plain regression line was determined by GraphPad Prism software and corresponds to the low affinity site. The dotted regression line was determined manually and corresponds to the high affinity site. Corresponding Kd and Bmax values are mentioned below the curve. C. Competition binding curve between THK5117 (10^-13-10^-5M) and ^3H-THK5117 (3nM) for hippocampus homogenates of one AD case. […] Ki Sup Hi = Ki for super high binding site; Ki Hi = Ki for high binding site; Ki Lo = Ki for low binding site.
# [4] = target: post-mortem AD temporal brain tissue homogenates (tau) (Homo sapiens, UniProt P10636); test: Saturation binding assay of ^3H-THK5117 in temporal cortex homogenates; conditions: AD temporal lobe homogenates
# Sequence of post-mortem AD temporal brain tissue homogenates (tau) (P10636 623-758 limits assumed): as above
# Protocol: as §1
# (§3) Saturation binding assays were carried out with incubation of temporal cortex and hippocampus homogenates (0.1 mg tissue) with ^3H-THK5117 (0.04-270 nM) for 2 h at room temperature. Non-specific binding was determined with 1 μM THK5117. The binding reaction was terminated by filtering through glass fiber filters (pre-soaked for 3 h in 0.3 % polyethylenimine), and rinsing three times with cold binding buffer, and counted with a beta scintillation counter (Beckman Coulter LS6500). The results were analyzed with GraphPad Prism software (version 5.0f for Mac OS X, GraphPad Software, San Diego California USA). The equilibrium dissociation constant (Kd) and maximum number of binding sites (Bmax) were then determined.
# [5] = target: hippocampus homogenates of one AD patient (tau) (Homo sapiens, UniProt P10636); test: Saturation binding assay of ^3H-THK5117 in hippocampus homogenates; conditions: one Alzheimer brain
# Sequence of hippocampus homogenates of one AD patient (tau) (P10636 623-695 limits assumed): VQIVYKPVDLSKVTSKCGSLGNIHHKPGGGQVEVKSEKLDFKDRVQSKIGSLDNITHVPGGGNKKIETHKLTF
# Protocol: as §1, §3
# [6] = tested on: brain homogenates from patients with AD (tau); test: Regional binding studies with ^3H-THK5117 (3 nM) in brain homogenates; design: species or system Human; conditions: AD cases
# Protocol: as §1
# Regional binding studies with ^3H-THK5117 were carried out on the brain homogenates from temporal cortex, frontal lobe, parietal lobe, caudate nucleus, hippocampus and cerebellum that were incubated with a single concentration of ^3H-THK5117 (3 nM). Non-specific binding was determined with 1 μM of THK5117. Comparisons between AD and control tissues were made using Mann–Whitney non-parametrical tests, with a threshold for significance of p < 0.05.
# [7] = tested on: frozen brain sections from left hemispheres of AD cases and control case (tau); test: ^3H-THK5117 autoradiography on large frozen brain hemisphere sections; assay type: binding, Human
# Source text: Postmortem brain tissue for autoradiography studies was obtained from three patients with AD that all three had been clinically followed (by A.N.) at the Department of Geriatric Medicine, Karolinska University Hospital, Huddinge, Sweden. The left hemisphere of each brain was frozen in large block sections. The right hemispheres were fixed in formaldehyde, brain tissue was sampled according to the BrainNet Europe protocol and histopathological investigations were undertaken (by I.N.) to confirm AD pathology (see Additional file 1).
# Frozen brain sections ([…]) from the left hemispheres of the three AD cases and the healthy control case were cut with a cryostat at −20 °C and thaw-mounted on chrome alum gelatin-subbed slides following a previously described protocol.
# For each case, frozen sections were dried, pre-incubated for 10 min with PBS + 0.1%BSA, and were then incubated for one hour with 4 nM ^3H-THK5117. The non-specific binding assay was performed on adjacent sections in the presence of 10 μM THK5117. After incubation, sections were washed 3 times for 5 min with cold incubation buffer, dipped into cold distilled water, and allowed to dry for at least 24 h. A Fujifilm BAS-2500 phosphor imaging plate was then exposed to the section, along with a tritium standard, for three days (Larodan Fine Chemical AB, Malmö, Sweden) before being scanned by a phosphoimager Fujifilm BAS-2500.
# Binding of the tracer was quantitatively assessed using MultiGauge Fujifilm software (V3.0). Two independent raters manually segmented different regions of interest, as defined by Duvernoy in “The Human Hippocampus” [19], resulting in regional mean uptake values for each segment. Inter-rater agreement was assessed for all uptake values using a Bland-Altman plot, with limits of agreement set to 95 %. When agreement was satisfactory, regional uptake values from both raters were averaged for subsequent analyses.
# [8] = tested on: tau (AT8) in paraffin sections of anterior and posterior hippocampus; test: ^3H-THK5117 autoradiography versus AT8 immunostaining on paraffin hippocampus sections; assay type: binding, Human; conditions: adjacent paraffin sections, AD case one
# Source text: Routine pathology with AT8 has been performed on anterior and posterior hippocampus paraffin sections from the right hemisphere of the three AD cases. Autoradiographies with ^3H-THK5117 on adjacent sections have been performed after deparafinization following the same protocol as cited above.
smiles,measurement,setting,value
"CNc1ccc(-c2nc3ccccc3s2)cc1 [BTA-1, 2-(4-methylaminophenyl)benzothiazole, reference compound]",Competition with ^3H-THK5117,"[1]; temporal cortex homogenates of four AD cases, ^3H-THK5117 3 nM",No competition
CNc1ccc(-c2ccc3cc(OCC(O)CF)ccc3n2)cc1 (stereo not shown) [THK5117],Ki,"[1]; ^3H-THK5117 3 nM, averaged from ten experiments, read-out: Ki2",16 nM
same,Ki,"[1]; ^3H-THK5117 3 nM, averaged from ten experiments, read-out: Ki3",750 nM
same,Ki,"[1]; potential third site, model constraint >100 for start of curve, ten experiments, read-out: Ki1",0.001 nM
same,Competition between ^3H-PIB and unlabeled THK5117,[2],No competition
same,Autofluorescence staining,neurofibrillary tangles,THK5117 binding on the neurofibrillary tangles
same,Number of binding sites in competition binding curve,[3],two different binding sites
"CNc1ccc(-c2ccc3cc(OCC(O)CF)ccc3n2)cc1 (stereo not shown) [^3H-THK5117, 1-Fluoro-3-((2-(4-([^3H]methylamino)phenyl)quinolin-6-yl)oxy)propan-2-ol]",Kd,"[4]; high affinity site, determined manually from Scatchard plot, averaged from seven experiments, read-out: Kd1",2.2 nM
same,Kd,"[4]; low affinity site (GraphPad Prism fit), read-out: Kd2",24 nM and 23.6 nM
same,Kd,"[5]; high affinity site, read-out: Kd, first binding site",3.1 nM
same,Kd,"[5]; low affinity site, read-out: Kd, second binding site",34 nM
"[3H]CNc1ccc(-c2ccc3cc(OCC(O)CF)ccc3n2)cc1 (stereo not shown) [^3H-THK5117, 1-Fluoro-3-((2-(4-([^3H]methylamino)phenyl)quinolin-6-yl)oxy)propan-2-ol]",Bmax1,"[4]; high affinity site, determined manually from Scatchard plot",250 fmol/mg
same,Bmax2,[4]; low affinity site (GraphPad Prism fit),1416 fmol/mg
same,"Bmax, first binding site",[5]; high affinity site,250 fmol/mg
same,"Bmax, second binding site",[5]; low affinity site,1226 fmol/mg
same,Regional binding of ^3H-THK5117,[6]; caudate nucleus homogenates,198 ± 30 fmol/mg
same,Regional binding of ^3H-THK5117,[6]; cerebellum homogenates,very low
same,Regional binding of ^3H-THK5117,[6]; hippocampus homogenates,198 ± 67 fmol/mg
same,Regional binding of ^3H-THK5117,[6]; parietal lobe homogenates,105 ± 46 fmol/mg
same,Regional binding of ^3H-THK5117,[6]; temporal lobe homogenates,110 ± 47 fmol/mg
same,^3H-THK5117 specific binding,"[7]; Amygdala, AD Case 1",507 fmol/mg
same,^3H-THK5117 specific binding,"[7]; Cingulate gyrus, AD Case 1",292 fmol/mg
same,^3H-THK5117 specific binding,"[7]; Cingulate gyrus, AD Case 2",120 fmol/mg
same,^3H-THK5117 specific binding,"[7]; Cingulate gyrus, AD Case 3",110 fmol/mg
same,^3H-THK5117 specific binding,"[7]; Entorhinal cortex, AD Case 1",713 fmol/mg
same,^3H-THK5117 specific binding,"[7]; Entorhinal cortex, AD Case 2",126 fmol/mg
same,^3H-THK5117 specific binding,"[7]; Entorhinal cortex, AD Case 3",53 fmol/mg
same,^3H-THK5117 specific binding,"[7]; Fusiform gyrus, AD Case 1",585 fmol/mg
same,^3H-THK5117 specific binding,"[7]; Fusiform gyrus, AD Case 2",189 fmol/mg
same,^3H-THK5117 specific binding,"[7]; Fusiform gyrus, AD Case 3",52 fmol/mg
same,^3H-THK5117 specific binding,"[7]; Hippocampus, AD Case 1",693 fmol/mg
same,^3H-THK5117 specific binding,"[7]; Hippocampus, AD Case 2",171 fmol/mg
same,^3H-THK5117 specific binding,"[7]; Hippocampus, AD Case 3",112 fmol/mg
same,^3H-THK5117 specific binding,"[7]; Inferior temporal gyrus, AD Case 1",764 fmol/mg
same,^3H-THK5117 specific binding,"[7]; Inferior temporal gyrus, AD Case 2",125 fmol/mg
same,^3H-THK5117 specific binding,"[7]; Inferior temporal gyrus, AD Case 3",59 fmol/mg
same,^3H-THK5117 specific binding,"[7]; Insular cortex, AD Case 1",423 fmol/mg
same,^3H-THK5117 specific binding,"[7]; Insular cortex, AD Case 2",68 fmol/mg
same,^3H-THK5117 specific binding,"[7]; Insular cortex, AD Case 3",50 fmol/mg
same,^3H-THK5117 specific binding,"[7]; Middle frontal gyrus, AD Case 1",276 fmol/mg
same,^3H-THK5117 specific binding,"[7]; Middle frontal gyrus, AD Case 2",55 fmol/mg
same,^3H-THK5117 specific binding,"[7]; Middle frontal gyrus, AD Case 3",56 fmol/mg
same,^3H-THK5117 specific binding,"[7]; Middle temporal gyrus, AD Case 1",495 fmol/mg
same,^3H-THK5117 specific binding,"[7]; Middle temporal gyrus, AD Case 2",140 fmol/mg
same,^3H-THK5117 specific binding,"[7]; Middle temporal gyrus, AD Case 3",48 fmol/mg
same,^3H-THK5117 specific binding,"[7]; Postcentral gyrus, AD Case 1",312 fmol/mg
same,^3H-THK5117 specific binding,"[7]; Postcentral gyrus, AD Case 2",77 fmol/mg
same,^3H-THK5117 specific binding,"[7]; Postcentral gyrus, AD Case 3",75 fmol/mg
same,^3H-THK5117 specific binding,"[7]; Precentral gyrus, AD Case 1",310 fmol/mg
same,^3H-THK5117 specific binding,"[7]; Precentral gyrus, AD Case 2",32 fmol/mg
same,^3H-THK5117 specific binding,"[7]; Precentral gyrus, AD Case 3",102 fmol/mg
same,^3H-THK5117 specific binding,"[7]; Putamen, AD Case 1",242 fmol/mg
same,^3H-THK5117 specific binding,"[7]; Superior frontal gyrus, AD Case 1",344 fmol/mg
same,^3H-THK5117 specific binding,"[7]; Superior frontal gyrus, AD Case 2",57 fmol/mg
same,^3H-THK5117 specific binding,"[7]; Superior frontal gyrus, AD Case 3",114 fmol/mg
same,^3H-THK5117 specific binding,"[7]; Superior temporal gyrus, AD Case 1",363 fmol/mg
same,^3H-THK5117 specific binding,"[7]; Superior temporal gyrus, AD Case 2",114 fmol/mg
same,^3H-THK5117 specific binding,"[7]; Superior temporal gyrus, AD Case 3",53 fmol/mg
same,^3H-THK5117 specific binding,"[7]; Thalamus, AD Case 1",349 fmol/mg
same,Autoradiography binding in control case,"[7]; control case compared to the three AD cases, 4 nM",Low and regional binding
same,Autoradiography binding pattern versus AT8 immunostaining,[8],identical binding pattern
